Experimental data taken from US11072741B2, “Optically anisotropic layer, method for producing the optically anisotropic layer, a laminate, polarizing plate, display device, liquid crystal compound, method for producing the liquid crystal compound, and carboxylic acid compound” (FUJIFILM Corporation, priority 2014, dated 2021).

Assays:
[1] = Evaluation of phase transition temperature by polarizing microscope; format: physicochemical; conditions: for Phase Transition Temperature Evaluation of Decrease: versus comparative compound with the same Ar and side chain portion of Formula (Ia)
Description: Here, the temperature at which the compound transitions from the smectic phase to the nematic phase may be easily measured by observation of the composition employing polarized light microscopy. For example, in the nematic phase, a schlieren texture specific to the nematic phase is observed, while the texture transitions to a focal conic fan texture in a smectic A phase. Therefore, the phase transition temperature can be measured by observing the textures with a polarizing microscope while increasing or decreasing the temperature.
The phase transition temperatures of the synthesized liquid crystal compounds of the Examples and Comparative Examples were observed using a polarizing microscope to evaluate the degrees of temperature decrease. Specifically, the compounds of the Examples were compared to the compounds of the Comparative Examples, which have different structures for the side chain portions thereof. That is, the phase transition temperature of a compound of a Comparative Example having Ar (the aromatic ring at the center of General Formula 1) in common with the Examples and a side chain portion represented by Formula (Ia) below was used as a reference. Evaluations of A through C were assigned according to the degree of temperature decrease from the reference phase transition temperature.
(§1) For example, compound (I-1) and (I-2) were compared to Comparative Compound (Ia-1), and Compound (III-3) was compared to Comparative Compound (IIIa-3). The evaluation was carried out based on the following criteria.
A: decrease in melting point or Sm-N (smectic-nematic) transition temperature is 20° C. or greater
B: decrease in melting point or Sm-N (smectic-nematic) transition temperature is 5° C. or greater and less than 20° C.
C: decrease in melting point or Sm-N (smectic-nematic) transition temperature is less than 5° C.
With respect to the phase transition temperature, the numerical value in parentheses represents the numerical value during temperature decrease, and other numerical values represent a numerical value during temperature increase.

[2] = Measurement and evaluation of solubility in MEK and CPN; format: physicochemical; parameters: key to Solubility Evaluation: A: solubility improved twofold or greater in plural solvents or a single solvent; B: solubility was the same or improved up to twofold in plural solvents or a single solvent; C: no improvement in solubility in plural solvents or a single solvent; conditions: for Solubility CPN wt %: cyclopentanone; for Solubility CPN wt % / Solubility MEK wt %: room temperature, visual observation, 5 wt % increments; for Solubility MEK wt %: methyl ethyl ketone; for Solubility Evaluation: versus comparative compound with the same Ar and side chain portion of Formula (Ia)
Experimental: Solubility measurements of the synthesized liquid crystal compounds were conducted by the following method. 50 mg of each compound was weighted into a 1.5 mL sample bottle, and solvent was added until the solid component became 40 wt % (75 mg). The solubility was determined to be 40 wt % if clear under visual observation after shaking well manually at room temperature. If undissolved residue was present, solvent was added such that the solid component became 35 wt % (+18 mg). The solubility was determined to be 35 wt % if clear under visual observation after shaking well manually at room temperature. If undissolved residue was present, solvent was added such that the solid component became 30 wt %. Similar operations were performed in increments of 5 wt %, and repeated until the solid component became 5 wt %. If undissolved residue was present, the solubility was determined to be less than 5 wt % (<5 wt %), and measurements were completed. MEK (methyl ethyl ketone) and CPN (cyclopentanone) were utilized as solvents for measuring solubility.
The measured values of solubility were evaluated. The evaluations were conducted by using solubility of a compound of a Comparative Example having Ar (the aromatic ring at the center of General Formula 1) in common with the Examples and a side chain portion represented by Formula (Ia) as a reference, in a manner similar to that in the evaluation of the phase transition temperature. Evaluations of A through C were assigned according to the degree of improvement in solubility from the reference solubility.
as §1
A: solubility improved twofold or greater in plural solvents or a single solvent
B: solubility was the same or improved up to twofold in plural solvents or a single solvent
C: no improvement in solubility in plural solvents or a single solvent

[3] = value in parentheses: during temperature decrease

Row | SMILES | TNi(° C.) Isotropic Phase Transition Point ([1]; during temperature increase) | Tsm—N(° C.) Sm—N Transition Point ([1]; during temperature increase) | Solubility CPN wt % [2] | Solubility MEK wt % [2] | melting point | TNi(° C.) Isotropic Phase Transition Point [1, 3] | Tsm—N(° C.) Sm—N Transition Point [1, 3] | Phase Transition Temperature Evaluation of Decrease [1] | Solubility Evaluation [2]
1 | C=CC(=O)OCCOC(=O)CCC(=O)OCCc1ccc(OC(=O)[C@H]2CC[C@H](C(=O)Oc3cc(C(C)(C)C)c(OC(=O)[C@H]4CC[C@H](C(=O)Oc5ccc(CCOC(=O)CCC(=O)OCCOC(=O)C=C)cc5)CC4)c4c3SC(=C(C#N)C#N)S4)CC2)cc1 [IV-6] | – | – | 40 wt % | 40 wt % | – | (58) ° C. | – | A (decrease in melting point or Sm-N (smectic-nematic) transition temperature is 20 °C or greater) | A (solubility improved twofold or greater in plural solvents or a single solvent)
2 | C=C(C)C(=O)OCCOCCNC(=O)OCCc1ccc(OC(=O)[C@H]2CC[C@H](C(=O)Oc3ccc(OC(=O)[C@H]4CC[C@H](C(=O)Oc5ccc(CCOC(=O)NCCOCCOC(=O)C(=C)C)cc5)CC4)c4c3SC(=C(C#N)C#N)S4)CC2)cc1 [Compound I-7] | 195 °C | 145 °C | 25 wt % | 10 wt % | 130 °C | – | – | B (decrease in melting point or Sm-N (smectic-nematic) transition temperature is 5 °C or greater and less than 20° C.) | A (solubility improved twofold or greater in plural solvents or a single solvent)
3 | C=CC(=O)OCCCCOc1ccc(C(=O)Oc2ccc(C(=O)Oc3ccc(OC(=O)c4ccc(OC(=O)c5ccc(OCCCCOC(=O)C=C)cc5)cc4)c4c3SC(=C(C#N)C#N)S4)cc2)cc1 [Ic-1] | >210^ ° C. | – | <10 wt % | <5 wt % | 185 °C | – | – | C (decrease in melting point or Sm-N (smectic-nematic) transition temperature is less than 5° C.) | C
4 | C=CC(=O)OCCOC(=O)CCC(=O)OCCc1ccc(OC(=O)[C@H]2CC[C@H](C(=O)Oc3cc(C)c(OC(=O)[C@H]4CC[C@H](C(=O)Oc5ccc(CCOC(=O)CCC(=O)OCCOC(=O)C=C)cc5)CC4)c4c3SC(=C(C#N)C#N)S4)CC2)cc1 [IV-1] | 172 °C | – | 35 wt % | 15 wt % | 148 °C | – | – | A (decrease in melting point or Sm-N (smectic-nematic) transition temperature is 20 °C or greater) | A (solubility improved twofold or greater in plural solvents or a single solvent)
5 | C=CC(=O)OCCOC(=O)CCC(=O)OCCc1ccc(OC(=O)[C@H]2CC[C@H](C(=O)Oc3cc(CC)c(OC(=O)[C@H]4CC[C@H](C(=O)Oc5ccc(CCOC(=O)CCC(=O)OCCOC(=O)C=C)cc5)CC4)c4c3SC(=C(C#N)C#N)S4)CC2)cc1 [IV-2] | – | – | 40 wt % | 40 wt % | – | (113) ° C. | (61) ° C. | – | –
6 | C=C(C)C(=O)OCCOC(=O)CCC(=O)OCCc1ccc(OC(=O)[C@H]2CC[C@H](C(=O)Oc3ccc(OC(=O)[C@H]4CC[C@H](C(=O)Oc5ccc(CCOC(=O)CCC(=O)OCCOC(=O)C(=C)C)cc5)CC4)c4c3SC(=C(C#N)C#N)S4)CC2)cc1 [Compound I-2] | 168 °C | 130 °C | 20 wt % | 10 wt % | 105 °C | – | – | A (decrease in melting point or Sm-N (smectic-nematic) transition temperature is 20 °C or greater) | A (solubility improved twofold or greater in plural solvents or a single solvent)

Second part, led by results:

Row | TNi(° C.) Isotropic Phase Transition Point ([1]; during temperature increase) | Tsm—N(° C.) Sm—N Transition Point ([1]; during temperature increase) | Solubility CPN wt % [2] | Solubility MEK wt % [2] | melting point | TNi(° C.) Isotropic Phase Transition Point [1, 3] | Tsm—N(° C.) Sm—N Transition Point [1, 3] | SMILES | Phase Transition Temperature Evaluation of Decrease [1] | Solubility Evaluation [2]
7 | 247 °C | 164 °C | 20 wt % | <10 wt % | 124 °C | – | – | C=CC(=O)OCCCCCCOc1ccc(OC(=O)[C@H]2CC[C@H](C(=O)Oc3ccc(OC(=O)[C@H]4CC[C@H](C(=O)Oc5ccc(OCCCCCCOC(=O)C=C)cc5)CC4)c4sc(=S)sc34)CC2)cc1 [VIa-7] | – | –
8 | 156 °C | 126 °C | 25 wt % | 15 wt % | 107 °C | – | – | C=CC(=O)OCCCCOC(=O)CCC(=O)OCCc1ccc(OC(=O)[C@H]2CC[C@H](C(=O)Oc3ccc(OC(=O)[C@H]4CC[C@H](C(=O)Oc5ccc(CCOC(=O)CCC(=O)OCCCCOC(=O)C=C)cc5)CC4)c4c3SC(=C(C#N)C#N)S4)CC2)cc1 [Compound I-3] | A (decrease in melting point or Sm-N (smectic-nematic) transition temperature is 20 °C or greater) | A (solubility improved twofold or greater in plural solvents or a single solvent)
9 | – | – | 10 wt % | <5 wt % | – | (167) ° C. | – | C=CC(=O)OCCCCCCOc1ccc(OC(=O)[C@H]2CC[C@H](C(=O)Oc3cc(C(C)(C)C)c(OC(=O)[C@H]4CC[C@H](C(=O)Oc5ccc(OCCCCCCOC(=O)C=C)cc5)CC4)c4c3SC(=C(C#N)C#N)S4)CC2)cc1 [IVa-6, reference compound] | – | –
10 | 190 °C | – | 35 wt % | 20 wt % | 134 °C | – | – | C=CC(=O)OCCOC(=O)CCC(=O)OCCc1ccc(OC(=O)[C@H]2CC[C@H](C(=O)Oc3ccc(OC(=O)[C@H]4CC[C@H](C(=O)Oc5ccc(CCOC(=O)CCC(=O)OCCOC(=O)C=C)cc5)CC4)c(/C=N/Nc4nc5ccccc5s4)c3)CC2)cc1 [VI-1] | A (decrease in melting point or Sm-N (smectic-nematic) transition temperature is 20 °C or greater) | A (solubility improved twofold or greater in plural solvents or a single solvent)
11 | 279 °C | – | 20 wt % | 10 wt % | 163 °C | – | – | C=CC(=O)OCCCCCCOc1ccc(OC(=O)[C@H]2CC[C@H](C(=O)Oc3ccc(OC(=O)[C@H]4CC[C@H](C(=O)Oc5ccc(OCCCCCCOC(=O)C=C)cc5)CC4)c(/C=N/Nc4nc5ccccc5s4)c3)CC2)cc1 [VIa-1] | – | –
12 | 240 °C | – | 10 wt % | <5 wt % | 131 °C | – | – | C=CC(=O)OCCCCCCOc1ccc(OC(=O)[C@H]2CC[C@H](C(=O)Oc3ccc(OC(=O)[C@H]4CC[C@H](C(=O)Oc5ccc(OCCCCCCOC(=O)C=C)cc5)CC4)c4c3SC(=C(C#N)C(=O)OC)S4)CC2)cc1 [IIIa-3] | – | –
13 | 176 °C | 138 °C | 20 wt % | 10 wt % | 102 °C | – | – | C=CC(=O)OCCCCOC(=O)Cc1ccc(OC(=O)[C@H]2CC[C@H](C(=O)Oc3ccc(OC(=O)[C@H]4CC[C@H](C(=O)Oc5ccc(CC(=O)OCCCCOC(=O)C=C)cc5)CC4)c4c3SC(=C(C#N)C#N)S4)CC2)cc1 [II-8] | A (decrease in melting point or Sm-N (smectic-nematic) transition temperature is 20 °C or greater) | A (solubility improved twofold or greater in plural solvents or a single solvent)
14 | – | – | 40 wt % | 40 wt % | – | (50) ° C. | – | C=CC(=O)OCCOC(=O)CCC(=O)OCCc1ccc(OC(=O)[C@H]2CC[C@H](C(=O)Oc3ccc(OC(=O)[C@H]4CC[C@H](C(=O)Oc5ccc(CCOC(=O)CCC(=O)OCCOC(=O)C=C)cc5)CC4)c4c3SC(=C(C#N)C(=O)OCCC(C)(C)O)S4)CC2)cc1 [III-7] | A (decrease in melting point or Sm-N (smectic-nematic) transition temperature is 20 °C or greater) | A (solubility improved twofold or greater in plural solvents or a single solvent)
